What was measured:
[1] = system: CT26-MUC1 cells; experiment: Survival in CT26 colon cancer tumor model; type: in vivo, BALB/c mice; details: 44 days post tumor implantation; MVATG9931 5×10^7 pfu day 2 and 9; sildenafil 80 mg/kg/day drinking water day 0 to 28; 12 mice per group
[2] = system: Adenovirus-specific T cells producing IFNγ; experiment: IFNγ-ELISpot, vector-specific T cell response (Ad-specific peptide FAL) in HBV-persistent mice; type: in vivo, C57BL/6J mice; details: splenocytes, day 76 post AAV2/8-HBV; sildenafil 20 mg/kg/day D31-59 or D48-76; AdTG18201 2×10^9 vp sc D36, 43, 50
Procedure: The capacity of splenocytes to produce IFNγ after different in vitro stimulations was measured by an IFNγ-ELISpot assay at day 76 post AAV2/8-HBV injection. Vector-specific T cell responses were assessed using the Ad-specific peptide FAL. Results are shown as the number of spots per 10^6 splenocytes. Each dot represents an individual mouse and thick line represents the mean value for each group (+/−SEM). The horizontal gray line represents the technical cutoff value (50 spots/10^6 cells) above which values are considered as positive T cell responses and which was defined as described in the Material and Methods. For groups with a positive T cell response, incidence of mice per group is indicated on the graph.
(§1) The HBV persistent mice used in the study were described by Dion et al. (2013, J Virol, 87(10):5554-63). […] This allows the analysis of HBV-specific viral parameters (HBsAg, HBeAg, HBcAg and viremia) as well as immunological read-outs (ICS, ELISpot or humoral immune responses). […]
IFNg-producing T cells were quantified by cytokine-specific ELISpot (enzyme linked immunospot) assay as previously described (Himoudi et al., 2002, J. Virol. 76: 12735). The number of spots (corresponding to the IFNg-producing T cells) in negative control wells were subtracted from the number of spots detected in experimental wells containing HBV peptides. […]

[3] = system: tumor-recruited MDSCs; details: mouse tumor models; cited from earlier work
[4] = system: HBV-Core-specific and HBV-Polymerase-specific T cells producing IFNγ; experiment: IFNγ-ELISpot, HBV-specific T cell responses (Full pool Core, VSA, N13F) in HBV-persistent mice; type: in vivo, C57BL/6J mice; details: splenocytes, day 76; cutoff 50 spots/10^6 cells; sildenafil 20 mg/kg/day D31-59 or D48-76
Procedure: The capacity of splenocytes to produce IFNγ after different in vitro stimulations was measured by an IFNγ-ELISpot assay at day 76 post AAV2/8-HBV injection. HBV-specific responses were assessed using the HBV-Core peptides (A, Full pool Core), -polymerase specific peptide VSA (B) or N13F (C). Results are shown as the number of spots per 10^6 splenocytes. Each dot represents an individual mouse and thick line represents mean values for each group (+/−SEM). The horizontal gray line represents the technical cutoff value (50 spots/10^6 cells) above which values are considered as positive T cell responses. For groups with a positive T cell response, incidence of mice per group is indicated on the graph.
The capacity of splenocytes to produce IFNγ after different in vitro stimulations was measured by an IFNγ-ELISpot assay at day 76 post AAV2/8-HBV injection. HBV-specific responses were assessed using the HBV-Core peptides (Full pool Core), -polymerase specific peptide VSA or N13F. Shown are mean values of responder mice (>50 spots/10^6 cells) (mean, SEM). […]
as §1

What does the source list for `CCCc1nn(C)c2c(=O)nc(-c3cc(S(=O)(=O)N4CCN(C)CC4)ccc3OCC)[nH]c12` [sildenafil, 1-[[3-(4,7-dihydro-1-methyl-7-oxo-3-propyl-1H-pyrazolo[4,3-d]pyrimidin-5-yl)-4-ethoxyphenyl]sulfonyl]-4-methylpiperazine]?
mice still alive (survival) [1]: 20%; IFNg-response to the Ad-specific peptide FAL [2]: negative; intratumoral T cell infiltration and activation [3]: enhance intratumoral T cell infiltration and activation; HBV-specific IFNg producing T responses (Full pool core, VSA, N13F) [4]: did not show any IFNg producing T responses
